PMC10110893, “[…]-derived synthetic cannabinoids inhibit T-type calcium channels with divergent effects on seizures in rodent models of epilepsy” (Frontiers in Physiology, 2023)

Key:
[1] = tested on: Genetic Absence Epilepsy Rat from Strasbourg (GAERS); test: Spike-and-wave discharges (EEG) in GAERS; type: in vivo
Method: GAERS experiments were conducted in accordance with the standards of the Canadian Council on Animal Care and approved by the University of Saskatchewan Animal Research Ethics Board (protocol 20130118). GAERS were initially sourced from the University of Melbourne to establish a Canadian GAERS colony in 2010 ([Powell et al., 2014]) and weanlings were provided by the Snutch Laboratory at the University of British Columbia to the University of Saskatchewan in 2013 (snutchlab.msl.ubc.ca) ([Marks et al., 2016]; [Marks et al., 2019]). GAERS were maintained on a 12 h light/dark cycle with lights on at 0700 and access to food and water ad libitum except during EEG recordings.
GAERS display reliable spike and wave discharges (SWD) characteristic of childhood absence epilepsy (CAE) ([Tringham et al., 2012]; [Marks et al., 2019]; [Roebuck et al., 2021]; [McElroy et al., 2022]; [Roebuck et al., 2022]). Experiments were conducted in male (n = 11; two removed due to poor recording integrity) and female (n = 5) GAERS. Group sizes were determined based on previous experiments and availability of age, sex, and litter matched animals ([Marks et al., 2019]; [McElroy et al., 2022]; [Roebuck et al., 2022]). Animals were well handled and habituated to the recording protocol prior to testing. Baseline recordings were performed prior to sessions with drug treatment and SB2193 (10, 30, 100 mg/kg) or vehicle (5 mL/kg) was administered (i.p.) ∼15–20 min prior to recordings using a within-subjects design (5–7 days washout periods between treatments). SB2193 was freshly prepared in ethanol-Kolliphor (Sigma Aldrich)-saline (1:1:18 ratio).
Construction and implantation of electrodes proceeded according to established protocols ([Farrell et al., 2018]; [Marks et al., 2019]; [McElroy et al., 2022]; [Roebuck et al., 2022]). Surgeries were performed under isoflurane anaesthesia with buprenorphine, anafen, and bupivicaine (topical) used as analgesics. Bipolar electrodes were chronically implanted bilaterally in somatosensory cortex (A/P 0.6 mm, M/L 5.5 mm, D/V −3.0 mm, relative to bregma) ([Polack et al., 2007]). Implants were secured with 3.2 mm stainless steel screws (one served as a ground) and dental cement. Animals were given a 1-week recovery period before habituation and testing.
Following recovery from surgery, animals were handled for 3–4 days and habituated to the EEG tether and hook-up process at least once before baseline recordings. Local field potentials (LFP) were acquired by tethered EEG (Grass Technologies), amplified 5,000x, and digitized at 100 Hz ([Farrell et al., 2018]; [Marks et al., 2019]; [McElroy et al., 2022]; [Roebuck et al., 2022]). Recordings (4 h) were conducted in two clear Plexiglas boxes (32 cm × 32 cm) and treatments were randomized such that each animal received each treatment. During recording sessions, animals were prevented from sleeping with gentle taps on the chamber door as necessary. Animals were perfused to confirm electrode placement following testing.
SWDs were analysed using a custom MATLAB (MathWorks) script developed by Dr. Stuart Cain and Jeff LeDue at the University of British Columbia. SWDs were assessed between 7 and 12 Hz and defined as bursts > 3x baseline amplitude >0.5 s as previously described ([Powell et al., 2014]; [Farrell et al., 2018]; [Marks et al., 2019]; [Roebuck et al., 2021]; [McElroy et al., 2022]; [Roebuck et al., 2022]). SWDs were analysed semi-automatically using Matlab and manually confirmed by a researcher blinded to treatment. A second researcher re-analysed a subset of files and interrater reliability was confirmed. Treatment data are normalized to initial non-treatment baseline data (e.g., % change) to account for SWD variability between subjects. Raw SWD data are also reported for comparison.
Time-binned data were analysed using a two-way analysis of variance (ANOVA) with factors of treatment (vehicle, 10, 30, 100 mg/kg SB2193) and time (1, 2, 3, 4 h post-treatment). […]

[2] = Aqueous solubility (dosing observation); type: physicochemical; conditions: prevented assessment at doses above 100 mg/kg
Method: SB2193 and SB2193F were prepared in ethanol-Tween 80%–0.9% saline (1:1:18 ratio) and valproic acid in 0.9% saline. All doses were completely soluble in this vehicle except for the 100 mg/kg SB2193 dose, which was a suspension.

[3] = tested on: Scn1a +/- mouse model of Dravet syndrome; test: Spontaneous seizures and survival monitoring in Scn1a+/- mice; type: in vivo
Method: Scn1a ^ +/− mice purchased from The Jackson Laboratory (stock 37107-JAX; Bar Harbour, United States) were maintained as a congenic line on a 129S6/SvEvTac background (129. Scn1a ^+/−). F1 mice were generated by crossing 129. Scn1a ^+/− mice with wild-type C57BL/6J mice (Jackson Laboratory stock no. 000664) and group housed. Scn1a genotype was determined as previously described ([Miller et al., 2014]).
On P18, male and female Scn1a ^ +/− mice were weaned and randomly assigned to treatment groups (untreated or SB2193) with n = 17–19 per group. For spontaneous seizure and survival experiments, SB2193 was administered sub-chronically via supplementation of the compound into chow to avoid stress associated with repeated i.p. injections. Chow was formulated at 5,000 mg/kg SB2193 in chow to provide target brain concentrations of 0.73 μM, with the daily oral dose based on the assumption that each mouse consumes approximately 3 g chow/day. Bodyweight of mice was monitored during the administration period to ensure consumption of chow. Animals in both treatment groups gained weight at an equivalent rate over the chow supplementation period (Supplementary Figure S1).
Continuous video recordings from 00:00 P23 to 24:00 P24 were made using a Samsung SCB-5003 days/night camera equipped with an infrared lens (Seoul, South Korea). The number of spontaneous generalised tonic-clonic seizures (GTCS) occurring over the 48 h recording period was quantified offline by a blinded observer. Statistical comparison was performed in GraphPad Prism using a Mann-Whitney U test as data were non-parametric. Treatment was continued to P30 to monitor survival of mice. Scn1a ^ +/− mice have a high premature mortality rate, with approximately 50% of animals surviving to P30 ([Miller et al., 2014]). We have observed substantial variability in the mortality rate across experimental cohorts which is difficult to explain and likely due to stochastic factors ([Anderson et al., 2020]; [Anderson et al., 2021]; [Anderson et al., 2022]). […]

[4] = 100 mg/kg i.p., 4 h EEG recording
[5] = 30 and 100 mg/kg i.p., 4 h EEG recording

Compound: CCCCCn1cc(C(=O)N2CCN(C(=O)OC(C)(C)C)CC2)c2ccccc21 [SB2193]
- SWD incidence, raw count data, compared to vehicle ([1]; 30 mg/kg i.p., 4 h EEG recording): significantly increased
- SWD average duration, raw data, compared to vehicle [1, 4]: significantly increased
- average SWD duration, normalized to baseline, compared to vehicle [1, 4]: increased
- SWD frequency ([1]; 10, 30, 100 mg/kg i.p., 4 h EEG recording): No changes
- effects on SWDs in the first hour following administration ([1]; 10, 30, 100 mg/kg i.p., first hour): No significant effects
- SWD (total) duration, normalized to baseline, compared to vehicle [1, 5]: significantly increased
- SWD incidence, normalized to baseline, compared to vehicle [1, 5]: significantly increased
- SWD total duration, raw data, compared to vehicle [1, 5]: significantly increased
- aqueous solubility [2]: poor aqueous solubility
- survival of mice to P30 ([3]; 5,000 mg/kg chow orally P18–P30): no effect
- spontaneous seizure (GTCS) frequency vs control mice ([3]; 5,000 mg/kg chow orally from P18, 48 h recording P23-24, n = 17–19): did not decrease
- bodyweight change ([3]; SB2193-treated vs untreated chow, P18 to P30, n = 14): no effect of treatment
